# According to the RepoRT retention time repository (doi:10.1016/j.chroma.2014.05.003):
# Assay: RP, Agilent ZORBAX Eclipse Plus C18, 50 × 4.6 mm, 1.8 µm, 0.5 mL/min, estimated dead time 1.1 min; A: water + 0.1% formic acid; B: acetonitrile + 0.1% formic acid; gradient (min/%B) 0/10 3/10 25/100 28/100
# Conditions: stereoisomer not certain
row,SMILES,LC retention time [min]
1,CCOP(=O)(Sc1ccccc1)Sc1ccccc1,17.6
2,CC12CCC3c4ccc(O)cc4CCC3C1CCC2O (stereo not given),13.4
3,CCN(CC)C(=O)c1cccc(C)c1,12.8
4,CC12CCC3C(CCC4=CC(=O)CCC43C)C1CCC2=O (stereo not given),14.8
5,C=C(C)C1CCC(C)=CC1c1c(O)cc(CCCCC)cc1O (stereo not given),21.2
6,COc1cc(Cc2cnc(N)nc2N)cc(OC)c1OC,5.6
7,COc1ccc(-c2ccccc2)cc1NNC(=O)OC(C)C,16.6
8,CCNc1nc(NC(C)(C)C)nc(SC)n1,18.3
9,Cc1cccc(Nc2ccccc2C(=O)O)c1C,17.7
10,COc1nn(CSP(=S)(OC)OC)c(=O)s1,15.3
11,CCOC(=O)CC(SP(=O)(OC)OC)C(=O)OCC (stereo not given),11.8
12,COCCOc1ccccc1S(=O)(=O)NC(=O)Nc1nc(OC)nc(OC)n1,11.9
13,CC1(C)SC2C(NC(=O)Cc3ccccc3)C(=O)N2C1C(=O)O (stereo not given),10.8
14,CC12CCC(=O)C=C1CCC1C2CCC2(C)C(O)CCC12 (stereo not given),13.7
15,CCOP(=S)(OCC)Oc1cnc2ccccc2n1,18.2
16,CCCCC(CC)COC(=O)c1ccccc1C(=O)OCC(CC)CCCC (stereo not given),27.5
17,CN1C2CCC1CC(OC(=O)C(CO)c1ccccc1)C2 (stereo not given),6.29
18,COC(=O)NN=Cc1c[n+]([O-])c2ccccc2[n+]1[O-],6.32
19,CC(Cc1ccc(C(C)(C)C)cc1)CN1CCCCC1 (stereo not given),12.5
20,CCSCc1ccccc1OC(=O)NC,13.1

row,SMILES,LC retention time [min]
1,CNC(=O)N(C)c1nc2ccccc2s1,12.1
2,Cn1c(=O)c2[nH]cnc2n(C)c1=O,2.8
3,CNc1nc(NC(C)C)nc(SC)n1,8.8
4,CNC(=O)C=C(C)OP(=O)(OC)OC,5.55
5,Nc1ncn[nH]1,1.36
6,CCN(CC)C(=O)C(C)Oc1cccc2ccccc12 (stereo not given),16.3
7,CC1c2cccc(O)c2C(O)=C2C(=O)C3(O)C(O)=C(C(N)=O)C(=O)C(N(C)C)C3C(O)C21 (stereo not given),8.75
8,COC(=O)C=C(C)OP(=O)(OC)OC,9.1
9,CN(C)C1C(=O)C(C(N)=O)=C(O)C2(O)C(=O)C3=C(O)c4c(O)cccc4C(C)(O)C3CC12 (stereo not given),6.62
10,CCOP(=S)(OCC)SCSP(=S)(OCC)OCC,21.7
11,COCC(=O)N(c1c(C)cccc1C)C(C)C(=O)OC (stereo not given),12.9
12,Cc1ccnc(NS(=O)(=O)c2ccc(N)cc2)n1,5.73
13,CCCCCCCCCCCCCC[N+](C)(C)Cc1ccccc1,18.4
14,CC12CCC3c4ccc(O)cc4CCC3C1CC(O)C2O (stereo not given),9.36
15,COP(=O)(OC)OC(C)=CC(=O)N(C)C,6.41
16,COP(N)(=O)SC (stereo not given),1.61
17,CCCCN(CCCC)N=O,15.9
18,CNC(=O)N(C)c1nnc(C(C)(C)C)s1,9.87
19,COc1cccc(C(=O)NN(C(=O)c2cc(C)cc(C)c2)C(C)(C)C)c1C,16.6
20,CCCCC1C(=O)N(c2ccccc2)N(c2ccccc2)C1=O,17.2
